The text below walks through data of article PMC10051485 (Pharmaceuticals, 2023).

The target in one data set is T1, Aβ1–42 (Homo sapiens, UniProt P05067).
T1 construct: Amyloid beta (Aβ1–42) was purchased from the American Peptide Company; purchased American Peptide Company (Sunnyvale, CA, USA)
The data set can be described thus: Anti-Aβ aggregation activity (Thioflavin T fluorescence assay). The data set is classed as biochemical. The conditions noted are these: ThT assay, Aβ1–42, 24 h, room temperature, pH 7.4; read-out: IC50 (µM) ± RSD, antiaggregation action on Aβ42. Here is the method: Each compound was diluted in 50 mM Tris-HCl (pH 7.4) to achieve a concentration between 10 nM and 100 µM using 5 concentration points. A total of 1 µL of each sample solution was added to 96-well plates. […] The plate was incubated in the dark at room temperature for 24 h with no agitation. After an incubation period, 200 µL of 5 µM ThT in 50 mM Tris-HCl (pH 7.4) was added to each well. Fluorescence was measured on a SpectraMax GEMINI EM (Molecular Devices, Sunnyvale, CA, USA) dual scanning microplate spectrofluorometer with excitation and emission wavelengths at 446 nm and 500 nm, respectively. The percent of antiaggregation was calculated as follows: [1 − (Fsample − Fblank)/Fcontrol] × 100.

The nature of another data set: in vitro. As to conditions: human. The protocol:
(§1) SK-N-SH cells were pretreated for 3 h with the respective half-maximal inhibitory doses of the tested compounds (except 9 and 10) before incubating with 25 μM Aβ42 for 24 h to determine the neuroprotective effect against Aβ42-induced toxicity. The relative cell viability (compared with the control) was then assessed.
(§2) Quantitative measurement of cell viability was performed by MTT assay. Briefly, SK-N-SH cells were seeded at a density of 5 × 10^4 cells/100 µL into each well of 96-well plate and incubated at 37 °C in 5% CO2 for 24 h. After incubation, the tested compounds were added at different concentrations, from 0 to 1000 µM. After incubation for 24 h, 50 µL of 3-(4,5-dimethylthiazol-2-yl)-2,5-diphenyltetrazolium bromide (MTT) stock solution (1 mg/mL) was added to each well and incubated at 37 °C for 3 h. Absorbance (A) of each well was measured using a plate reader at a wavelength of 590 nm. Three independent experiments were performed, and results were expressed as mean ± SD. […] Each concentration was prepared in triplicate. […] After incubation for 24 h, 50 µL of MTT stock solution (1 mg/mL) was added to each well and incubated at 37 °C for 3 h. The absorbance (A) of each well was measured using a plate reader at a wavelength of 590 nm. Three independent experiments were performed, and results were expressed as mean ± SD.
(§3) The percent of cell viability was calculated as follow: (A590nm of treated cells/A590nm of untreated cells) × 100.

The test system of data set [1] is SK-N-SH neuroblastoma cells. The data set can be described thus: Cytotoxicity on SK-N-SH neuroblastoma cells (MTT assay). The conditions noted are these: MTT, 24 h, tested 0–1000 µM. Here is the method:
as §1, §2, §3

Data set [2] is described as follows: Antioxidant activity (DPPH assay). As to conditions: DPPH 0.4 mM, 30 min in darkness; read-out: IC50 (µM) ± RSD, antioxidative activity. Here is the method:
Increased generation of free radicals also results in cytotoxicity from Aβ42. This effect might be associated with the Aβ1–42 mediated neurotoxicity. Therefore, it was intriguing to research the roles of the synthesized compounds in assisting oxidative stress, thus preventing cell death. By employing vitamin C as a positive control, the antioxidative properties of synthesized compounds were assessed using the DPPH assay. The activities were presented as the IC50 in Table 4.
Antioxidant activity of tested compounds was determined by the reaction of stable DPPH radical with some modification. Briefly, various concentrations of test compounds were added in 96-well plates and then the methanolic DPPH solution (0.4 mM, 0.1 mL) into each well. The reaction mixture was placed for 30 min in darkness. The degree of purple DPPH decolorization to yellow DPPH indicated the scavenging capacity of the test compounds. The absorbance of the mixture was determined at 517 nm using a microplate reader and L-ascorbic acid served as a positive control. The percent of antioxidant activity was calculated as follow: [1 − (Asample − Ablank)/Acontrol] × 100.
A general note: DPPH is a stable violet radical that fades when it is reduced.

For data set [3], the target named is T2, Acetylcholinesterase (AChE) (Electrophorus electricus, UniProt O42275).
T2 construct: purchased Sigma type VI-S
The data set can be described thus: Antiacetylcholinesterase activity (Ellman assay). The conditions noted are these: read-out: % Inhibition ± RSD of acetylcholinesterase. The class given is biochemical, Electrophorus electricus (electric eel). The protocol: All the chemicals were purchased from commercial suppliers and were used without any purification. Acetylcholinesterase from Electrophorus electricus (electric eel) type VI-S was produced from Sigma. […] SK-N-SH human neuroblastoma cell line was obtained from the American Type Culture Collection (ATCC HTB-11). The melting point of all compounds was determined on an Electrothermal model 9100 capillary melting point apparatus. Infrared (IR) spectra were run on Fourier Transform Infrared Spectroscopy (FT-IR) (Nicolet 6700, Thermo Scientific, Waltham, MA, USA) using the direct compression technique and record in cm^−1. Proton and carbon nuclear magnetic resonance (^1H NMR, ^13C NMR) spectra were obtained on an Advance 300 MHz NMR Spectroscopy (DPX-3000, Bruker, Switzerland) at 300 MHz and 75.45 MHz, respectively. Chemical shifts (δ) were reported in parts per million (ppm). The NMR solvents used were deuterated dimethylsulfoxide (DMSO-d6, δ = 2.49 ppm) and deuterated chloroform (CDCl3, δ = 7.25 ppm). Mass spectra were determined on a LCQ Fleet Ion Trap Mass Spectrometry using the ESI method. Silica gel 60 (Merck, Art 7734) was used for column chromatography as an adsorbent. The ratio of sample and the adsorbent was about 1:40–60 by weight. The mobile phases developed for thin-layer chromatography (TLC) were generally applied for a column. TLC investigations routinely used for chromatographic separations were carried out on silica gel F254 coated aluminum sheets 20 × 20 cm (Merck, 0.2 mm thickness). The components were detected by visualization under ultraviolet (UV) light at λ of 254 and 365 nm. All solvents were reagent grade and, when necessary, were purified and dried by standard methods. Starting materials and reagents were obtained from commercial suppliers.
Acetylcholinesterase (AChE) inhibitory activity was assayed by modified Ellman’s method using 96-well microplates. […] The absorbance of the mixture in each well was measured at 405 nm by using a microplate reader. After adding 25 µL of 0.22 U/mL AChE in Buffer II into each well, the measurement of absorbance was carried out again at 405 nm and repeated every 45 s for 10 min cycles by a microplate reader (Infinite M200, Tecan, Switzerland). […] The assay was performed in triplicate. […] The percent of enzyme inhibition was calculated as follows: {[(A-B) − (C − D)]/(A − B)} × 100, where A and C were the absorbances of the control treatment and test compounds; and B and D were blank of control and test compounds.
A general note: Ellman's reagent forms a yellow product with free thiols.

Another data set concerns SK-N-SH cells. The data set can be described thus: Morphological cell changes (phase contrast inverted microscope). The data set is classed as cell-based, human. As to conditions: 25 µM Aβ42, 24 h. Here is the method: The effect of Aβ42 in inducing cell death was confirmed using a phase-contrast inverted microscope.
To determine the effect of designed compounds on cell morphology, the observation of cells on phase contrast inverted microscope was performed. […] After incubation, the medium was removed and replaced with various concentrations of the designed compound and incubated for 24 h. After cells were treated with compounds or Aβ1–42, media were removed and treated cells were washed once with phosphate buffer saline (PBS). Then, cells were observed under phase contrast inverted microscope at 400 magnifications.

Entries after “also recorded” stand apart in the source; their conditions may differ.

T2 sequence (O42275 24-633): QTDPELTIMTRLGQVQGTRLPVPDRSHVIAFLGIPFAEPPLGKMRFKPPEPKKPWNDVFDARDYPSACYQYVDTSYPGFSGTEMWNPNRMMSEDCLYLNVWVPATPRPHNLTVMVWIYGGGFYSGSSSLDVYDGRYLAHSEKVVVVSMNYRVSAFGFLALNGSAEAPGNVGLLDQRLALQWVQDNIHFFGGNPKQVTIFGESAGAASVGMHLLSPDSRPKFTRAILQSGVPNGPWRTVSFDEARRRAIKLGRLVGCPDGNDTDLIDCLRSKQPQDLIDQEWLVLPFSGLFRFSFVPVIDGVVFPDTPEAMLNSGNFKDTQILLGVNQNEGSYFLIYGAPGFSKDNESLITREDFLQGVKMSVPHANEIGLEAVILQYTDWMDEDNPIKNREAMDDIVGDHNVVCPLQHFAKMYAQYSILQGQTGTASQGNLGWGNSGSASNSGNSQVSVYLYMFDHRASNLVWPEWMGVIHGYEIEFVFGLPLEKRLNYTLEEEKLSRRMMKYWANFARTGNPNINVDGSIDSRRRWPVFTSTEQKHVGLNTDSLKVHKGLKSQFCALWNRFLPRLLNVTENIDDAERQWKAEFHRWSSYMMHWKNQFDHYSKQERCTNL
T1 sequence (P05067 672-713): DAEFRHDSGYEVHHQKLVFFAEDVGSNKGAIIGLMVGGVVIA

For the compound `Cc1[nH]c2ccc(Oc3ccccc3)cc2c1CC(=O)NS(C)(=O)=O` [Compound 5, 2-Methyl-3-(methylsulfonylethanamide-2-yl)-5-phenoxy Indole], the IC50 on Aβ1–42 turned out to be 3.18 µM; in data set [2], 28.2 µM. The same compound registered a viability at 24 h in “in vitro” of 93 ± 1.02%. In data set [1], the “Highest concentration that showed nontoxicity on SK-N-SH cells” value is recorded as 62.50 µM. Moreover, the inhibition at 100 µM in data set [3] was -5.66%. Besides, in the data set with SK-N-SH cells, the “Morphology of SK-N-SH cells treated with Aβ42 and compound” value was “healthy cell bodies with neurites; also recorded: healthy cell bodies and neuritis”.

A word on the IC50: it is the concentration that inhibits the measured activity by half. By viability is commonly meant a per cent measure of how many cells are alive, often set against a control. For orientation: inhibition means the drop in the measured response relative to a control, in per cent.
